Source: paper PMC10669433 (Antibiotics, 2023)
“Also recorded” adds a separate entry of the source.

How the values were obtained:
[1] = test system: cardiovascular prosthetic infections (PVE, CEDI, PVGI); assay: Clinical cure in patients with cardiovascular prosthetic infections treated with dalbavancin as sequential therapy (retrospective case series); assay type: in vivo, human
Procedure: Data were collected from May 2019 to May 2023 at the Modena University Hospital, a tertiary care hospital in Northern Italy. Cardiovascular infections included PVE, CEDI, and PVGI.
(§1) Clinical evaluation was carried out at the end of treatment (EOT) and at the end of a six-month follow-up. Primary outcome was clinical cure, defined as resolution of all clinical signs and symptoms of infection, with or without radiological improvement. […] Finally, for primary outcome, a comparison between patients treated with standard (the 1500 mg infusion regimen at day 1 and day 8, with subsequent 1000 mg administrations every 2 weeks) vs. TDM-guided approach was performed.

[2] = test system: cardiovascular prosthetic infections (PVE, CEDI, PVGI); assay: Microbiological cure / relapse (blood cultures) in the case series; assay type: in vivo, human
Procedure: as §1

[3] = Adverse events in the case series; assay type: in vivo, human
[4] = test system: cardiovascular prosthetic infections (PVE, CEDI, PVGI); assay: 18F-FDG PET/TC radiological improvement; assay type: in vivo, human; conditions: 18F-FDG PET/TC available for nine patients; 6/9
Text: For diagnosis, all patients underwent clinical, microbiological, and echocardiographic evaluation (transthoracic echocardiography and transesophageal echocardiography [TEE]). Major echocardiographic criteria included vegetation, abscess, pseudoaneurysm, intracardiac fistula, valvular perforation or aneurysm, and new partial dehiscence of prosthetic valve. In addition, according to clinical indication, computed tomography (CT) angiography or cardiac one and/or 18F-fluorodeoxyglucose (FDG)-positron emission tomography (PET) PET were also performed.
Data collection included demographic information, Charlson Comorbidity Index (CCI), type and site of infection, microbiological isolation, prior antibiotic treatment, surgical procedure (performed or not, complete or partial), laboratory variables, and when available, radiological improvement (fluorodeoxyglucose positron emission tomography (FDG-PET) alone or in combination with computed tomographic angiography (CTA) to assess optimal duration of antibiotic treatment at follow-up).

[5] = cited from earlier work
Text: It is associated with good tissue penetration, including staphylococcal biofilms, making this antibiotic a promising agent to treat biofilm-mediated infections.

[6] = test system: vancomycin-resistant S. aureus (VRSA); conditions: cited from earlier work
Text: (§2) Dalbavancin is a long-acting parenteral lipoglycopeptide, a semisynthetic derivative of teicoplanin. It is characterized by a large spectrum of action against Gram-positive bacteria, such as Staphylococcus aureus (including methicillin-resistant S. aureus, but also strains with intermediate sensitivity to vancomycin), Streptococcus agalactiae, Streptococcus pyogenes, Streptococcus anginosus, vancomycin-sensitive Enterococcus faecium, and Enterococcus faecalis; it is poorly active against vancomycin-resistant S. aureus (VRSA), and it is not active against vancomycin-resistant enterococci with t ...

[7] = test system: vancomycin-resistant enterococci with the Van A phenotype; conditions: cited from earlier work
Text: as §2

infective endocarditis [8] = conditions: review, sequential dalbavancin in infective endocarditis, 170 patients; cited from earlier work
infective endocarditis [9] = test system: infective endocarditis; parameters: method as in PMID 37442488, PMID 30389305; conditions: 124 subjects with infective endocarditis; cited from earlier work
S. aureus = conditions: dalbavancin group vs 22% in the SOC group, p = 0.484; cited from earlier work
Text: Unfortunately, all patients received dalbavancin as sequential therapy, with a medi ...

CN[C@H]1C(=O)N[C@@H]2Cc3ccc(cc3)Oc3cc4cc(c3O[C@@H]3O[C@H](C(=O)O)[C@@H](O)[C@H](O)[C@H]3NC(=O)CCCCCCCCC(C)C)Oc3ccc(cc3Cl)[C@@H](O)[C@@H]3NC(=O)[C@H](NC(=O)[C@@H]4NC(=O)[C@@H](NC2=O)c2cc(cc(O)c2Cl)Oc2cc1ccc2O)c1ccc(O)c(c1)-c1c(O[C@H]2O[C@H](CO)[C@@H](O)[C@H](O)[C@@H]2O)cc(O)cc1[C@@H](C(=O)NCCCN(C)C)NC3=O [dalbavancin]
Clinical cure according to causative pathogen: E. faecalis ([1]; 1/1 patient): 100% | Clinical cure according to causative pathogen: G. morbillorum ([1]; 1/1 patient): 100% | Clinical cure according to causative pathogen: CoNS ([1]; 2/2 patients): 100% | Clinical cure according to causative pathogen: viridans Streptococcus ([1]; 3/3 patients): 100% | Clinical cure according to causative pathogen: S. aureus ([1]; 3/5 patients): 60% | Clinical success in patients treated without TDM ([1]; 3/5 patients): 60% | Clinical cure, suppressive antibiotic therapy without complete source control ([1]; 6/9 patients): 66.6% | Clinical cure at the EOT, cardiac implantable electronic devices infections (n = 3), % ([1]; CEDI, end of treatment): (66.6) % | Clinical cure at the EOT, cardiac implantable electronic devices infections (n = 3), patients/evaluable ([1]; CEDI, end of treatment): 2/3 | Clinical cure at the EOT, prosthetic valve endocarditis (n = 8), % ([1]; PVE, end of treatment): (75) % | Clinical cure at the EOT, prosthetic valve endocarditis (n = 8), patients/evaluable ([1]; PVE, end of treatment): 6/8 | Clinical cure at the EOT, prosthetic vascular grafts infections (n = 6), % ([1]; PVGI, end of treatment): (83.3) % | Clinical cure at the EOT, prosthetic vascular grafts infections (n = 6), patients/evaluable ([1]; PVGI, end of treatment): 5/6 | Clinical cure at the EOT (n = 13), % ([1]; end of treatment, 10/13 patients): (76.9) % | Clinical cure at the EOT (n = 13), patients cured/evaluable ([1]; end of treatment, dalbavancin 1500 mg day 1 and day 8, then further doses (fixed or TDM-guided), after first-line antibiotics): 10/13 | Clinical cure, patients who underwent the complete source control intervention ([1]; implant removal, 4/4 patients): 100% | Clinical cure in TDM-guided group (n = 8), patients cured/evaluable ([1]; patients with TDM-guided redosing): 7/8 | Clinical Success End of Treatment ([1]; single patients): Yes (7 w); also recorded: Yes (25 w); also recorded: Yes (18 w); also recorded: Yes (29 w); also recorded: Yes (14 w); also recorded: Yes (47 w); also recorded: Yes (9 w); also recorded: No (16 w); also recorded: Yes (10 w); also recorded: Yes (20 w); also recorded: No (53 w); also recorded: No (12 w) | Clinical Success Six Months Follow-Up ([1]; single patients, one table row per patient): Yes and No | Clinical cure at six months of follow-up (n = 12), % ([1]; six-month follow-up): (75) % | Clinical cure at six months of follow-up (n = 12), patients cured/evaluable ([1]; six-month follow-up): 9/12 | Microbiological relapse after treatment interruption (n = 13), patients/evaluable ([2]; after dalbavancin interruption): 1/13 | Microbiological cure at the EOT (n = 13), patients/evaluable ([2]; end of treatment, sustained negativity of blood cultures): 10/13 | Tolerability ([3]; 14 patients, long-term therapy): well tolerated | Adverse effect reactions: impaired renal function, % ([3]; of N = 14 patients): (7.1) % | Adverse effect reactions: rash, % ([3]; of N = 14 patients): (7.1) % | Radiological improvement with a marked SUV reduction [4]: 66.6% | elimination half-life [5]: 14 days | total protein binding [5]: 93% | clearance route ([5]; no active metabolites): predominantly renal | activity against vancomycin-resistant S. aureus (VRSA) [6]: poorly active | activity against vancomycin-resistant enterococci with the Van A phenotype [7]: not active | overall clinical efficacy (infective endocarditis [8]): around 90% | clinical success rate at 12 months of follow-up (infective endocarditis [9]): 95.2% | treatment-related readmission rates within 30 days (S. aureus): 15%
